From patent US20120022045A1, “BRIDGED COMPOUNDS AS HIV INTEGRASE INHIBITORS” (priority 2009, published 2012)
Read-outs that look alike come from different tables or passages of the source.

Columns and labels:
Type in all cases: cell-based
HIV-1 = assay: Inhibition of acute HIV-1 infection of T-lymphoid cells (spread assay); conditions: 10% FBS, read-out: IC95 (nM) in the presence of 10% FBS
Description: Assays for the inhibition of acute HIV-1 infection of T-lymphoid cells were conducted in accordance with Vacca, J. P. et al., Proc. Natl. Acad. Sci. USA 1994, 91: 4096.

[1] = tested on: HIV-1 integrase mutant virus Y143R; assay: Single cycle infectivity assay in HeLa P4-2 cells, integrase mutant Y143R virus; conditions: fold shift in IC50 versus wild type IIIB
Description: (§1) An assay for measuring the inhibition of acute HIV-1 infection with HeLa P4-2 cells in a single cycle infectivity assay was conducted using methods described in Joyce et al., J. Biol. Chem. 2002, 277: 45811, Hazuda et al., Science 2000, 287: 646, and Kimpton et al, J. Virol. 1992, 66: 2232. Proviral plasmids encoding viruses containing specific mutations in the integrase gene (N155H, Q148R, Y143R, E92Q, or G140S/Q148H) were generated by site-directed mutagenesis, and viruses were produced by transfecting 293T cells with the appropriate proviral plasmids.

HIV-1 wild type IIIB = assay: Single cycle infectivity assay in HeLa P4-2 cells, wild type virus
Description: as §1

[2] = tested on: HIV-1 integrase mutant virus G140S/Q148H; assay: Single cycle infectivity assay in HeLa P4-2 cells, integrase mutant G140S/Q148H virus; conditions: fold shift in IC50 versus wild type IIIB
Description: as §1

[3] = tested on: HIV-1 integrase mutant virus N155H; assay: Single cycle infectivity assay in HeLa P4-2 cells, integrase mutant N155H virus; conditions: fold shift in IC50 versus wild type IIIB
Description: as §1

[4] = tested on: HIV-1 integrase mutant virus Q148R; assay: Single cycle infectivity assay in HeLa P4-2 cells, integrase mutant Q148R virus; conditions: fold shift in IC50 versus wild type IIIB
Description: as §1

[5] = Human immunodeficiency virus 1, T-lymphoid
[6] = Human immunodeficiency virus 1, IIIB, HeLaP4-2, wild type IIIB

| SMILES | IC95 (HIV-1) [nM] | Y143R (shift) [1] [fold] | IC50 (HIV-1 wild type IIIB; wild type IIIB) [nM] | G140S/Q148H (shift) [2] [fold] | N155H (shift) [3] [fold] | Q148R (shift) [4] [fold] | IC95 (HIV-1; [5]) [nM] | IC50 (HIV-1 wild type IIIB; [6]) [nM] |
| --- | --- | --- | --- | --- | --- | --- | --- | --- |
| CCC1C2CCC(NC(=O)C(=O)N(C)C)(CO2)c2nc(C(=O)NCc3ccc(F)cc3)c(O)c(=O)n21 (single isomer, unassigned) [Example 26D, N′-(8-ethyl-4-{[(4-fluorobenzyl)amino]carbonyl}-5-hydroxy-6-oxo-10-oxa-3,7-diazatricyclo[7.2.2.0^2,7]trideca-2,4-dien-1-yl)-N-dimethylethanediamide] | 5.1 | 2 | 16 | 1 | 1 | 1 |  |  |
| CC1C2CCC(N(C)C(=O)C(=O)N(C)C)(CO2)c2nc(C(=O)NCc3ccc(F)cc3)c(O)c(=O)n21 (single isomer, unassigned) [Example 27A, N-(4-{[(4-fluorobenzyl)amino]carbonyl}-5-hydroxy-8-methyl-6-oxo-10-oxa-3,7-diazatricyclo[7.2.2.0^2,7]trideca-2,4-dien-1-yl)-N,N′,N′-trimethylethanediamide] | 7.5 | 1 | 20 | 2 | 1 | 1 |  |  |
| CC1C2CCC(N(C)C(=O)C(=O)N(C)C)(CO2)c2nc(C(=O)NCc3ccc(F)cc3)c(O)c(=O)n21 (single isomer, unassigned) [Example 27B, N-(4-{[(4-fluorobenzyl)amino]carbonyl}-5-hydroxy-8-methyl-6-oxo-10-oxa-3,7-diazatricyclo[7.2.2.0^2,7]trideca-2,4-dien-1-yl)-N,N′,N′-trimethylethanediamide] | 27.3 | 7 | 24 | >70 | 20 | 9 |  |  |
| CC1C2CCC(N(C)C(=O)C(=O)N(C)C)(CO2)c2nc(C(=O)NCc3ccc(F)cc3)c(O)c(=O)n21 (single isomer, unassigned) [Example 27C, N-(4-{[(4-fluorobenzyl)amino]carbonyl}-5-hydroxy-8-methyl-6-oxo-10-oxa-3,7-diazatricyclo[7.2.2.0^2,7]trideca-2,4-dien-1-yl)-N,N′,N′-trimethylethanediamide] | 7.7 | 3 | 15 | >111 | 11 | 12 |  |  |
| CC1C2CCC(N(C)C(=O)C(=O)N(C)C)(CO2)c2nc(C(=O)NCc3ccc(F)cc3)c(O)c(=O)n21 (single isomer, unassigned) [Example 27D, N-(4-{[(4-fluorobenzyl)amino]carbonyl}-5-hydroxy-8-methyl-6-oxo-10-oxa-3,7-diazatricyclo[7.2.2.0^2,7]trideca-2,4-dien-1-yl)-N,N′,N′-trimethylethanediamide] | 6.9 | 1 | 11 | 2 | 1 | 1 |  |  |
| CNC(=O)C(=O)N(C)C12CCC(OC1)C(C)n1c2nc(C(=O)NCc2ccc(F)cc2)c(O)c1=O (single isomer, unassigned) [Example 28A, N-(4-{[(4-fluorobenzyl)amino]carbonyl}-5-hydroxy-8-methyl-6-oxo-10-oxa-3,7-diazatricyclo[7.2.2.0^2,7]trideca-2,4-dien-1-yl)-N,N′-dimethylethanediamide] |  | 1 |  | 4 | 3 | 1 | 17.8 | 46 |
| CC1C2CCC(NC(=O)C(=O)N(C)C)(CO2)c2nc(C(=O)NCc3ccc(F)cc3)c(O)c(=O)n21 (single isomer, unassigned) [Example 29A, N′-(4-{[(4-Fluorobenzyl)amino]carbonyl}-5-hydroxy-8-methyl-6-oxo-10-oxa-3,7-diazatricyclo[7.2.2.0^2,7]trideca-2,4-dien-1-yl)-N-dimethylethanediamide] | 17.9 | 1 | 20 | 4 | 1 | 1 |  |  |
| CC1C2CCC(NC(=O)C(=O)N(C)C)(CO2)c2nc(C(=O)NCc3ccc(F)cc3)c(O)c(=O)n21 (single isomer, unassigned) [Example 29C, N′-(4-{[(4-Fluorobenzyl)amino]carbonyl}-5-hydroxy-8-methyl-6-oxo-10-oxa-3,7-diazatricyclo[7.2.2.0^2,7]trideca-2,4-dien-1-yl)-N-dimethylethanediamide] | 47.8 | 3 | 20 | 81 | 17 | 8 |  |  |
| CC1C2CCC(NC(=O)C(=O)N(C)C)(CO2)c2nc(C(=O)NCc3ccc(F)cc3)c(O)c(=O)n21 (single isomer, unassigned) [Example 29D, N′-(4-{[(4-Fluorobenzyl)amino]carbonyl}-5-hydroxy-8-methyl-6-oxo-10-oxa-3,7-diazatricyclo[7.2.2.0^2,7]trideca-2,4-dien-1-yl)-N-dimethylethanediamide] | 21.6 | 1 | 21 | 2 | 2 | 1 |  |  |
| Cc1nnc(C(=O)N(C)C23CCC(Cn4c2nc(C(=O)NCc2ccc(F)cc2)c(O)c4=O)C3)o1 (stereo not drawn) [Example 7, N-(4-Fluorobenzyl)-3-hydroxy-10-{methyl[(5-methyl-1,3,4-oxadiazol-2-yl)carbonyl]amino}-4-oxo-4,6,7,8,9,10-hexahydro-7,10-methanopyrimido[1,2-a]azepine-2-carboxamide] |  | 2 |  | 44 | 3 | 4 | 9.6 | 80 |
| CN(C)C(=O)C(=O)N(C)C12CCC(Cn3c1nc(C(=O)NCc1ccc(F)cc1)c(O)c3=O)C2 (stereo not drawn) [Example 8] |  | 13 |  | 110 | 16 | 18 | 9.2 | 13 |
| CN(C(=O)C(=O)N1CCOCC1)C12CCC(Cn3c1nc(C(=O)NCc1ccc(F)cc1)c(O)c3=O)C2 (stereo not drawn) [Example 9, N-(4-Fluorobenzyl)-3-hydroxy-10-{methyl[morpholin-4-yl(oxo)acetyl]amino}-4-oxo-4,6,7,8,9,10-hexahydro-7,10-methanopyrimido[1,2-a]azepine-2-carboxamide] |  | 2 |  | 40 | 5 | 11 | 15 | 43 |
| COC12CCC(N(C)C(=O)C(=O)N(C)C)(CC1)c1nc(C(=O)NCc3ccc(F)c(C)c3)c(O)c(=O)n1C2 [Example 14, N-(4-{[(4-Fluoro-3-methylbenzyl)amino]carbonyl}-5-hydroxy-9-methoxy-6-oxo-3,7-diazatricyclo[7.2.2.0^2,7]trideca-2,4-dien-1-yl)-N,N′,N′-trimethylethanediamide] |  | 2 |  | 4 | 2 | 1 | 13.1 | 12 |
| COC12CCC(N(C)C(=O)C(=O)N(C)C)(CC1)c1nc(C(=O)NCc3ccc(F)cc3)c(O)c(=O)n1C2 [Example 15, N-(4-{[(4-Fluorobenzyl)amino]carbonyl}-5-hydroxy-9-methoxy-6-oxo-3,7-diazatricyclo[7.2.2.0^2,7]trideca-2,4-dien-1-yl)-N,N′,N′-trimethylethanediamide] |  | 1 |  | 9 | 2 | 1 | 9.5 | 23 |
